PMC5062570 (Nature Communications, 2016)
“Also recorded” adds a separate entry of the source. Like-named read-outs stand apart in the source and are kept apart here.

What was measured:
[1] = tested on: retinal pigment epithelium (RPE); parameters: method as in PMID 22090477, PMID 25361751; conditions: cited from earlier work
[2] = biological target: CatD in ARPE-19 cells (Homo sapiens, UniProt P07339); test: Live cell lysosome neutralization and PF-7802 labelling of CatD; conditions: ammonium chloride 10 mM, 2 h or bafilomycin A1 400 nM, 4 h before labelling
CatD in ARPE-19 cells, sequence (P07339 169-412 limits assumed): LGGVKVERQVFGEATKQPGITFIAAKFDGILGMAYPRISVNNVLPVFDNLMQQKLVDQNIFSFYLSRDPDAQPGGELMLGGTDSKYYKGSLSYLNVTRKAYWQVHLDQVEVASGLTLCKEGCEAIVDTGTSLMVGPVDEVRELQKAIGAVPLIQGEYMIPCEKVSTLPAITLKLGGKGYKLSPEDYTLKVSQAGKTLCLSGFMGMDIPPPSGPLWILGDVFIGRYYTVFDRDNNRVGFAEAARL
CatD in ARPE-19 cells, sequence (P07339 65-162 limits assumed): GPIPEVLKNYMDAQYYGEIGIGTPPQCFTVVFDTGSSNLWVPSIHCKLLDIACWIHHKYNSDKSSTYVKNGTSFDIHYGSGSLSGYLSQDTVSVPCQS

[3] = pKa determination by multiplexed capillary electrophoresis; type: physicochemical; conditions: aqueous buffers
Procedure: All pKa values were determined at Analiza, Inc. by multiplexed capillary electrophoresis (mCE) using 96-capillary array electrophoresis instrument to measure the effective mobility (migration time of the compound in relation to neutral marker, DMSO) with ultraviolet detection. The pKa values were obtained from the ionization curves by plotting the compound effective mobility (24 points across pH range 1.7–11.2) versus pH. All pKa results were determined using aqueous buffers with method average absolute error 0.12.

[4] = biological target: T1, CatD (Homo sapiens, UniProt P07339); test: CatD cellular assay (competition of PF-7802 photolabelling in live ARPE-19 cells); type: cell-based; parameters: host or cells: ARPE-19; conditions: for CatD potency increase in live cells: CatD enzyme IC50 versus CatD cellular IC50; for IC50: live ARPE-19 cells, PF-7802 photoprobe 100 nM, 30 min
Procedure: ARPE-19 cells were plated at a density of 1.2 × 10^6 cells per well in six-well dishes 12–24 h before probe labelling. Culture media was removed completely and replaced with 1 ml of the appropriate serum-free media (no supplements) per well. Cells were then pretreated with test compounds at the indicated concentrations for 30 min (0.5% DMSO, 37 °C, 5% CO2). […] Ultraviolet irradiation was performed without culture plate lids for efficient irradiation, and samples were slowly rotated to prevent evaporation. After ultraviolet irradiation, cells were washed twice with Dulbecco's phosphate-buffered saline (DPBS), scraped into DPBS, centrifuged and stored as pellets at −80 °C.
Cells were lysed with sonication on ice in 70 μl DPBS and protein concentrations were determined using a BCA assay (Pierce). Total protein concentrations were then normalized to 1 mg ml^−1 in 50 μl total volume before addition of 5.5 μl click chemistry mix (1 : 3 : 1 : 0.5 volume of 50 mM CuSO4 (Sigma) in H2O : 1.7 mM TBTA (Sigma) in 4:1 t-BuOH:DMSO : 50 mM TCEP (Hampton Research) in dPBS : 10 mM TAMRA-azide (Lumiprobe) in DMSO - mixed immediately before use. Reagent solutions can be premade and stored at 4 °C except for TCEP, which should be made immediately before use). […] All fluorescence gels are presented in greyscale.
Target sequence in this assay (P07339 169-412 limits assumed): as the sequence (P07339 169-412 limits assumed) above
Target sequence in this assay (P07339 65-162 limits assumed): as the sequence (P07339 65-162 limits assumed) above

[5] = biological target: T2, BACE1 (Homo sapiens, UniProt P56817); test: BACE1 purified enzyme fluorescence polarization assay; type: biochemical; parameters: His (C); made in house; host or cells: CHO-K1
Procedure: (§1) Purified enzyme inhibition of BACE1, BACE2, CatD and CatE was determined using fluorescence polarization (FP) assays. Briefly, purified enzymes were treated with test compounds (1% DMSO, 37 °C) in the presence of synthetic peptide substrates (150 nM) in 30 μl total volume of NaOAc buffer (100 mM, pH 4.5, 0.0001% Tween-20) in a 384-well plate. After incubation, reactions were stopped and substrate captured by the addition of 1.5 μM streptavidin, and FP measured with an EnVision plate reader (PerkinElmer, excitation 485 nm, emission 530 nm). […] BACE2 activity was assessed with 0.5 nM recombinant BACE2 (R&D Systems 4097-AS) and the same synthetic substrate used for BACE1, with a 1 h incubation time. […] CatE activity was assessed with 1.0 nM recombinant CatE (Creative BioMart CTSE-255H) and the same synthetic substrate used for CatD, with a 1.5 h incubation time.
Target sequence in this assay (P56817 46-457): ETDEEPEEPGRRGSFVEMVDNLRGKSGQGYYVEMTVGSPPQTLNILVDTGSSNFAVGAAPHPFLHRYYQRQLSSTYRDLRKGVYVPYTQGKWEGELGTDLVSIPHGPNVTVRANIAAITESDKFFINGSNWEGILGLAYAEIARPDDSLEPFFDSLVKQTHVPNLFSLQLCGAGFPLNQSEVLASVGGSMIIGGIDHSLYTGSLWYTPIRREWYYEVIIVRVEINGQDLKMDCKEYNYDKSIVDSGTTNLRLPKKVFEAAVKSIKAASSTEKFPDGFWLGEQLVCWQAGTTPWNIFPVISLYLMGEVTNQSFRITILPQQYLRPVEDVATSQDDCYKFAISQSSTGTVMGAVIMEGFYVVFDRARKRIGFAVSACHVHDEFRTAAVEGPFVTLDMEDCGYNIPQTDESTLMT

[6] = biological target: T2, BACE1; test: BACE1 biochemical cellular assay (sAPPβ ELISA in H4 cells overexpressing APP695); type: cell-based; parameters: endogenous in cells; host or cells: H4 human neuroglioma cells overexpressing human APP695; conditions: for BACE1 potency increase in live cells: BACE1 enzyme IC50 versus BACE1 cellular IC50; for IC50: sAPPβ ELISA, H4 neuroglioma cells with human wild-type APP
Procedure: Cellular inhibition of BACE1 was determined by measuring sAPPβ, the primary cleavage product of BACE-1, in H4 human neuroglioma cells overexpressing the wild-type human APP695. […] The colorimetric reaction was read by an EnVision plate reader (PerkinElmer).
Target sequence in this assay (P56817 46-501): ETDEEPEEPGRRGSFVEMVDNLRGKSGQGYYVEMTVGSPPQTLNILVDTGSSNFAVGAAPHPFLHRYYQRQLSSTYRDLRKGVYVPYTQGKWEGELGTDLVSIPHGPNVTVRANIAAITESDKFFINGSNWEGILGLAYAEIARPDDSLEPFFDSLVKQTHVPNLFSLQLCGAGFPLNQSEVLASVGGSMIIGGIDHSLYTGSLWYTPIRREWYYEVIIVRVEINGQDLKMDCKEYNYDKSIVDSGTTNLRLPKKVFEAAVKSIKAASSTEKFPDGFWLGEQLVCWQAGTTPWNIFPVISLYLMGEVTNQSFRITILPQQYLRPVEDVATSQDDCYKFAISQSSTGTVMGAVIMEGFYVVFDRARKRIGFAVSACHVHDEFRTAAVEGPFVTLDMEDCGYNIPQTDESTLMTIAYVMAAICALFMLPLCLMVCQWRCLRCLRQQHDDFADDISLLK

[7] = biological target: T1, CatD; test: CatD purified enzyme fluorescence polarization assay; type: biochemical; parameters: final maturation into a non-covalently associated heavy chain and light chain; purchased Sigma C8696; host or cells: human liver; conditions: for IC50: purified human enzyme, fluorescence polarization, substrate-based
Procedure: as §1
Target sequence in this assay (P07339 65-162 limits assumed): as the sequence (P07339 65-162 limits assumed) above
Target sequence in this assay (P07339 169-412 limits assumed): as the sequence (P07339 169-412 limits assumed) above

[8] = biological target: T3, BACE2 (Homo sapiens, UniProt Q9Y5Z0); test: BACE2 purified enzyme fluorescence polarization assay; type: biochemical; conditions: purified human enzyme, fluorescence polarization
T3 construct: purchased R&D Systems 4097-AS
T3 sequence (Q9Y5Z0 63-518): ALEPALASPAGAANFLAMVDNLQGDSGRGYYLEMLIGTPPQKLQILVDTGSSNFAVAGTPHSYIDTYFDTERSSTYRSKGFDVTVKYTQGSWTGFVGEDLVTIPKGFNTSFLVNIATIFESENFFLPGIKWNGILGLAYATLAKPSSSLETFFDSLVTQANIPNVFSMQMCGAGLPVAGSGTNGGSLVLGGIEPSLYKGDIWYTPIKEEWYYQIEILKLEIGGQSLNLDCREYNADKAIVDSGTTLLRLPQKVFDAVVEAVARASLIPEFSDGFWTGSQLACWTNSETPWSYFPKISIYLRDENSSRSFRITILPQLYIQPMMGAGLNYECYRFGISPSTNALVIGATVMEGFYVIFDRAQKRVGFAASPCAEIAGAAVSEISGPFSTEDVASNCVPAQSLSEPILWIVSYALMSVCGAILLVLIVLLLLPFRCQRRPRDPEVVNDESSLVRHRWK
Procedure: as §1

[9] = tested on: retinal pigment epithelium (RPE); test: Exploratory toxicology, ocular toxicity by retinal histology in rats; type: in vivo; conditions: for Female ocular toxicity incidence (positive or negative animals / total evaluated) / Female ocular toxicity outcome / Male ocular toxicity incidence (positive or negative animals / total evaluated) / Male ocular toxicity outcome: rat; for Ocular toxicity: 29-day studies with high daily doses
Procedure: (§2) Wistar Han rats (obtained from Charles River, 125–300 g, 6–9 weeks old at study start, see Supplementary Table 7 for number of males and females) received daily oral dosing of test compounds or vehicle at the indicated concentrations for 7–29 days as indicated. The doses were prepared in a solution of 0.5% methylcellulose and 0.2% polysorbate 80, or 0.5% methylcellulose and hydroxypropyl methylcellulose acetate succinate (high fine grade) and delivered in a volume of 10 ml kg^−1 per day. Blood samples for bioanalytical analysis were collected in K2EDTA tubes via jugular vessel. Plasma was isolated after centrifugation and stored at −20 °C prior to analysis. Animals were given an additional dose the day after the end of the study (days 8, 15 or 30 for 7, 14 and 29 day studies, respectively) then killed by gas anaesthesia (isoflurane) followed by exsanguination ∼3 h after this final dose.

[10] = Plasma exposure (average unbound plasma concentration) in rats; type: in vivo, rat; conditions: Wistar Han, oral, rat, 29 days, average unbound plasma concentration, read-out: Avg Cp,u parent
Procedure: as §2
Plasma samples were analysed after protein precipitation by treating 20 μl of sample matrix with 200 μl of acetonitrile containing internal standard. All samples were centrifuged at 3,000 r.p.m. for 5 min. Then 100 μl of supernatant was transferred to a clean plate and evaporated to dryness under N2. Samples were reconstituted in 200 μl of 80:20 (v:v) acetonitrile:water. Samples were analysed on Waters Acquity UPLC connected to AB Sciex API5500 QTrap MS/MS.
Plasma protein binding was determined in the Rapid Equilibrium Device (RED, Thermo Scientific). Frozen plasma was warmed to 37 °C and adjusted to pH 7.4. The plasma was spiked with compound to a final concentration of 2 μM. Aliquots of spiked plasma were added to the donor (red) side, followed by addition of buffer to the receiver (white) side. The RED device was covered with a gas-permeable membrane and agitated within a humidified CO2 incubator (5% CO2, 75% relative humidity). Plasma (15 μl) and buffer (45 μl) were sampled from each insert and were matrix-matched with appropriate blank matrix (plasma with 45 μl buffer and buffer with 15 μl of plasma). Samples were protein-precipitated with acetonitrile containing internal standard, and the resulting supernatant was analysed by LC-MS/MS.

[11] = tested on: CatD; conditions: read-out: IC50 against purified CatD in vitro; cited from earlier work
[12] = purified human enzyme, fluorescence polarization, peptide substrate
[13] = 29 days, 100 mg kg-1 once daily

pKa [3]	IC50 [4] [µM]	IC50 [7] [µM]	IC50 [8] [µM]	Structure (SMILES)	CatD potency increase in live cells [4] [x]	IC50 [5, 12] [µM]	BACE1 potency increase in live cells [6] [x]	IC50 [6] [µM]	further results
				CC1(C#Cc2cnc3c(c2)[C@]2(COC(N)=N2)c2cc(-c4cccnc4F)ccc2O3)COC1 [AMG-8718, (S)-7-(2-Fluoropyridin-3-yl)-3-((3-methyloxetan-3-yl)ethynyl)-5′H-spiro[chromeno[2,3-b]pyridine-5,4′-oxazol]-2′-amine]					Ocular toxicity in preclinical animal models [1]: ocular toxicity in preclinical animal models
				Cl.N [ammonium chloride]					PF-7802 labelling of CatD after lysosome neutralization [2]: significantly decreased labelling of CatD
7.0	0.94	16	1.6	NC1=N[C@@]2(c3ccc(F)cc3F)CO[C@@H](c3cc(CO)no3)C[C@H]2[C@@H](CF)S1 [PF-3763]	17	0.38	4.8	0.08	
				CO/C1=C\C(C)=C\[C@@H](C)[C@@H](O)[C@@H](C)C/C(C)=C/C=C/[C@H](OC)[C@@H]([C@@H](C)[C@@H](O)[C@H](C)[C@@]2(O)C[C@@H](O)[C@H](C)[C@@H](C(C)C)O2)OC1=O [bafilomycin A1]					PF-7802 labelling of CatD after lysosome neutralization [2]: significantly decreased labelling of CatD
				NC1=N[C@@]2(c3cc(NC(=O)c4ccc(F)cn4)ccc3F)COC[C@H]2CS1 [LY2886721, reference compound]	> 15		13		pKa ([3]; read-out: pKa): 7.6; Female ocular toxicity incidence (positive or negative animals / total evaluated) [9, 13]: 4/4; Female ocular toxicity outcome [9, 13]: Neg (negative (neg) if there was no ocular abnormality observed); Male ocular toxicity incidence (positive or negative animals / total evaluated) [9, 13]: 4/4; Male ocular toxicity outcome [9, 13]: Neg (negative (neg) if there was no ocular abnormality observed); Retinal finding by fluorescence microscopy ([9]; rats, 100 mg kg-1 daily, 29 days): no ocular abnormality was observed; Ocular toxicity ([9]; rats): negative for ocular toxicity; also recorded: no ocular findings; also recorded: no ocular toxicity; concentration at 29 days ([10]; 100 mg kg-1 once daily): 3480 nM; IC50 [11]: > 100 µM; CatD potency difference between cell-free enzyme and cellular assays [4]: > 15 fold; Inhibition of purified CatD ([7]; purified CatD biochemical substrate assay): inactive
6.9	0.58	37	0.67	NC1=N[C@@]2(c3ccc(F)cc3F)CO[C@@H](c3nc(CO)co3)C[C@H]2[C@@H](CF)S1 [PF-7152]	64	0.46	7.2	0.064	
	> 20	> 20	> 20	NC1=N[C@@]2(c3ccc(F)cc3F)CO[C@@H](C(=O)O)C[C@H]2[C@@H](CF)S1 [PF-2696]					IC50 ([5]; purified enzyme): > 20 µM

Structure (SMILES)	pKa [3]	IC50 [4] [µM]	IC50 [7] [µM]	IC50 [8] [µM]	CatD potency increase in live cells [4] [x]	IC50 [5, 12] [µM]	BACE1 potency increase in live cells [6] [x]	IC50 [6] [µM]	further results
C[C@H]1SC(N)=N[C@@]2(c3ccc(F)cc3F)CO[C@@H](c3cc(CO)no3)C[C@@H]12 [PF-9159]	7.8	0.11	17		150	0.21	12	0.017	
COc1cnc(C(=O)Nc2ccc(F)c([C@]3(C)CS(=O)(=O)N(C)C(N)=N3)c2)cn1 [SG1, reference compound]		2.9	> 100	0.017	> 34	0.006	10	0.00059	pKa ([3]; read-out: pKa): 6.9; Female ocular toxicity incidence (positive or negative animals / total evaluated) ([9]; 29 days, 60 mg kg-1 once daily): 4/4; Female ocular toxicity outcome ([9]; 29 days, 60 mg kg-1 once daily): Neg (negative (neg) if there was no ocular abnormality observed); Male ocular toxicity incidence (positive or negative animals / total evaluated) ([9]; 29 days, 60 mg kg-1 once daily): 4/4; Male ocular toxicity outcome ([9]; 29 days, 60 mg kg-1 once daily): Neg (negative (neg) if there was no ocular abnormality observed); Ocular toxicity ([9]; rats): negative for ocular toxicity; also recorded: no ocular findings; also recorded: no ocular toxicity; concentration at 29 days ([10]; 60 mg kg-1 once daily): 1560 nM; BACE1 selectivity over CatD in cells ([4]; cellular inhibition of BACE1 cleavage of APP versus inhibition of CatD labelling by PF-7802): > 2,000 fold
